molecular target: T1, ΔF508-CFTR (Homo sapiens, UniProt P13569, DEL508-508); assay: Membrane potential optical assay (FRET voltage-sensor dyes, VIPR), identification of potentiator compounds; type: cell-based; conditions: Table 3; assay not given; read-out: % Activity (% Efficacy, relative efficacy)
T1 construct: expressed in transfected cells
Summary of the method: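 NIH3T3 mouse fibroblasts stably expressing ΔF508-CFTR, cultured 24 h at 27 °C, were loaded with FRET voltage dyes CC2-DMPE and DiSBAC2(3). Double-addition format: first addition of Cl⁻-free (gluconate) medium with or without compound; membrane-potential change read as fluorescence on VIPR II.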

T1 sequence (P13569 with tags, fused parts or gaps DEL508-508): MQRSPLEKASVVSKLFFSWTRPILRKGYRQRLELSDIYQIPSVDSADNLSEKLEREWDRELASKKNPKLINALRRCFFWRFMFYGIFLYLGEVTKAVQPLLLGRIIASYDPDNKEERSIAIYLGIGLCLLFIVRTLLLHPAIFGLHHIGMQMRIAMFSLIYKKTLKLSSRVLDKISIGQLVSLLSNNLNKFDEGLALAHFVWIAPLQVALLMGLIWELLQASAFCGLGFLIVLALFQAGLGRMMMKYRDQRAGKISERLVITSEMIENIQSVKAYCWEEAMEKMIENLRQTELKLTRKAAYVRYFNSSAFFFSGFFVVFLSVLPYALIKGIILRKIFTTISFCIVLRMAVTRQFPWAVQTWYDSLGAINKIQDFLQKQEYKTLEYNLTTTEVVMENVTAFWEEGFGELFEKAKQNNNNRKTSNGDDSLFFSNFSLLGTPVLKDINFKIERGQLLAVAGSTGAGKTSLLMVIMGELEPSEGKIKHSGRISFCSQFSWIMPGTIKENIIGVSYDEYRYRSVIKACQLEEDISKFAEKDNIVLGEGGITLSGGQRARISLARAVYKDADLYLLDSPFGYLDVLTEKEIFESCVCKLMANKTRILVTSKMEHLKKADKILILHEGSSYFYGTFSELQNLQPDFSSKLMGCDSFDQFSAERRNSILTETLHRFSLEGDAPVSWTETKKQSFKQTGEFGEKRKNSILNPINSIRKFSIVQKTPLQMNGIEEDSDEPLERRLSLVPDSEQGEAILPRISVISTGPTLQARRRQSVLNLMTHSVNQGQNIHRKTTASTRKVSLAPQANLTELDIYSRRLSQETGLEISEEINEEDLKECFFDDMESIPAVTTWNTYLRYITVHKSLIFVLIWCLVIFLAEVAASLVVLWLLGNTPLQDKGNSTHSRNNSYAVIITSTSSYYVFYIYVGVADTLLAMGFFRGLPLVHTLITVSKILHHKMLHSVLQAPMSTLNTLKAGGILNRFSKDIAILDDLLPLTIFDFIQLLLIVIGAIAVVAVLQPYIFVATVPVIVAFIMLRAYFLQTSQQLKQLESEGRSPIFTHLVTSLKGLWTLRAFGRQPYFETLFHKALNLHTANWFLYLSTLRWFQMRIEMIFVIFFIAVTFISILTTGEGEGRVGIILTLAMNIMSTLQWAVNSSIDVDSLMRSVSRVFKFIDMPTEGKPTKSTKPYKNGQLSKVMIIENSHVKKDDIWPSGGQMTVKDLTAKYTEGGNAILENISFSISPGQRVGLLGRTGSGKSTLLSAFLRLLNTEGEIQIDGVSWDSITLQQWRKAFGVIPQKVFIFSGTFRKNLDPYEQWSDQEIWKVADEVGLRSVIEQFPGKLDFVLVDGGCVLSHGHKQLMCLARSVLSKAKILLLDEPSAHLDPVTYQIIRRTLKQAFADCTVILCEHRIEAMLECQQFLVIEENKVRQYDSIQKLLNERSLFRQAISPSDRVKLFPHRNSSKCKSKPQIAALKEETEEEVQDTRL

**Q.** Which Emax does the source give for `O=C(Nc1ccccc1-c1ccc(Cl)c(Cl)c1)c1c[nH]c2ccccc2c1=O` [Compound 85, N-[2-(3,4-dichlorophenyl)phenyl]-4-oxo-1H-quinoline-3-carboxamide] here?
**A.** Its Emax is 25 to 100%.

**Q.** How did the Emax turn out when `O=C(Nc1cccnc1Oc1ccc(F)cc1)c1c[nH]c2ccccc2c1=O` [Compound 147, N-[2-(4-fluorophenoxy)-3-pyridyl]-4-oxo-1H-quinoline-3-carboxamide] was run?
**A.** The Emax was 25 to 100%.

**Q.** `O=C(Nc1ccc(-c2ccccc2)cn1)c1c[nH]c2ccccc2c1=O` [Compound 402, 4-oxo-N-(5-phenyl-2-pyridyl)-1H-quinoline-3-carboxamide] was tested. Which Emax did it give?
**A.** The Emax was under 25%.

**Q.** How did the Emax turn out when `CC(=O)Nc1cccc(NC(=O)c2c[nH]c3ccccc3c2=O)c1` [Compound 419, N-(3-acetylaminophenyl)-4-oxo-1H-quinoline-3-carboxamide] was run?
**A.** The Emax was under 25%.

**Q.** `O=C(Nc1ccc(N2CCC2)cc1C(F)(F)F)c1c[nH]c2ccccc2c1=O` [Compound 689, N-[4-azetidin-1-yl-2-(trifluoromethyl)phenyl]-4-oxo-1H-quinoline-3-carboxamide] was tested. Which Emax did it give?
**A.** Its Emax is 25 to 100%.

**Q.** With `Cc1ccc(-c2ccccc2NC(=O)c2c[nH]c3ccccc3c2=O)cc1` [Compound 181, 4-oxo-N-[2-(p-tolyl)phenyl]-1H-quinoline-3-carboxamide] as the molecule, how does the Emax read?
**A.** The Emax was 25 to 100%.

**Q.** How did the Emax turn out when `COc1ccc(NC(=O)c2c[nH]c3ccccc3c2=O)cc1N` [Compound 378, N-(3-amino-4-methoxy-phenyl)-4-oxo-1H-quinoline-3-carboxamide] was run?
**A.** Its Emax is 25 to 100%.

**Q.** How did the Emax turn out when `CC(=O)c1ccc2c(=O)c(C(=O)Nc3cc(O)c(C(C)(C)C)cc3C(C)(C)C)c[nH]c2c1` [Compound 604, 7-acetyl-N-(5-hydroxy-2,4-ditert-butyl-phenyl)-4-oxo-1H-quinoline-3-carboxamide] was run?
**A.** The Emax was 25 to 100%.

**Q.** Which Emax does the source give for `O=C(Nc1ccc2c(c1)NCCO2)c1c[nH]c2ccccc2c1=O` [Compound 105, 1,4-dihydro-N-(3,4-dihydro-2H-benzo[b][1,4]oxazin-6-yl)-4-oxoquinoline-3-carboxamide] here?
**A.** Its Emax is 25 to 100%.

**Q.** How did the Emax turn out when `O=C(Nc1ccc(N2CCC[C@@H]2CO)cc1C(F)(F)F)c1c[nH]c2ccccc2c1=O` [Compound 670, (R)-N-(4-(2-(hydroxymethyl)pyrrolidin-1-yl)-2-(trifluoromethyl)phenyl)-4-oxo-1,4-dihydroquinoline-3-carboxamide] was run?
**A.** The Emax was 25 to 100%.

**Q.** `CC(C)N1CCN(c2ccc(NC(=O)c3c[nH]c4ccccc4c3=O)c(C(F)(F)F)c2)CC1` [Compound 639, N-[4-(4-isopropylpiperazin-1-yl)-2-(trifluoromethyl)phenyl]-4-oxo-1H-quinoline-3-carboxamide] was tested. Which Emax did it give?
**A.** Its Emax is 25 to 100%.

**Q.** How did the Emax turn out when `Cc1cccc2[nH]cc(C(=O)Nc3cc(O)c(C4(C)CCCCC4)cc3F)c(=O)c12` [Compound 498, N-[2-fluoro-5-hydroxy-4-(1-methylcyclohexyl)-phenyl]-5-methyl-4-oxo-1H-quinoline-3-carboxamide] was run?
**A.** The Emax was 25 to 100%.

**Q.** Which Emax does the source give for `Cc1cccc(-c2ccccc2NC(=O)c2c[nH]c3ccccc3c2=O)c1C` [Compound 401, N-[2-(2,3-dimethylphenyl)phenyl]-4-oxo-1H-quinoline-3-carboxamide] here?
**A.** The Emax was 25 to 100%.

**Q.** `CCOc1ccccc1-c1cc2cc[nH]c2cc1NC(=O)c1c[nH]c2ccccc2c1=O` [Compound 327, N-[5-(2-ethoxyphenyl)-1H-indol-6-yl]-4-oxo-1H-quinoline-3-carboxamide] was tested. Which Emax did it give?
**A.** Its Emax is 25 to 100%.

**Q.** For `CC1(c2cc(F)c(NC(=O)c3c[nH]c4cccc(O)c4c3=O)cc2O)CCCCC1` [Compound 287, N-[2-fluoro-5-hydroxy-4-(1-methylcyclohexyl)-phenyl]-5-hydroxy-4-oxo-1H-quinoline-3-carboxamide], which Emax is on record?
**A.** The Emax was 25 to 100%.

**Q.** `Cc1ccc2[nH]cc(C(=O)Nc3cc(O)c(C4(C)CCCCC4)cc3F)c(=O)c2c1` [Compound 624, N-[2-fluoro-5-hydroxy-4-(1-methylcyclohexyl)-phenyl]-6-methyl-4-oxo-1H-quinoline-3-carboxamide] was tested. Which Emax did it give?
**A.** Its Emax is 25 to 100%.

**Q.** For `CC(C)(C)c1ccc(O)cc1NC(=O)c1c[nH]c2ccccc2c1=O` [Compound 662, N-(5-hydroxy-2-tert-butyl-phenyl)-4-oxo-1H-quinoline-3-carboxamide], which Emax is on record?
**A.** The Emax was over 100%.

**Q.** `COc1cccc(OC)c1-c1ccccc1NC(=O)c1c[nH]c2ccccc2c1=O` [Compound 49, N-[2-(2,6-dimethoxyphenyl)phenyl]-4-oxo-1H-quinoline-3-carboxamide] was tested. Which Emax did it give?
**A.** Its Emax is 25 to 100%.

**Q.** For `CCOc1cccc2c(=O)c(C(=O)Nc3cc4[nH]ccc4cc3C(C)(C)C)c[nH]c12` [Compound 641, 8-ethoxy-4-oxo-N-(5-tert-butyl-1H-indol-6-yl)-1H-quinoline-3-carboxamide], which Emax is on record?
**A.** Its Emax is under 25%.

**Q.** Which Emax does the source give for `O=C(Nc1ccc2c(c1)NCC21CC1)c1c[nH]c2ccccc2c1=O` [Compound 22, 4-Oxo-1,4-dihydro-quinoline-3-carboxylic acid N-(1′,2′-dihydrospiro[cyclopropane-1,3′-[3H]indol]-6′-yl)-amide] here?
**A.** Its Emax is 25 to 100%.

**Q.** For `O=C(Nc1ccc2[nH]c(=O)oc2c1)c1c[nH]c2ccccc2c1=O` [Compound 152, 4-oxo-N-(2-oxo-3H-benzooxazol-6-yl)-1H-quinoline-3-carboxamide], which Emax is on record?
**A.** The Emax was under 25%.

**Q.** `CC(C)(CNC(=O)OCC1CCOC1)c1ccc(NC(=O)c2c[nH]c3ccccc3c2=O)cc1` (stereo not drawn) [Compound 396, [2-methyl-2-[4-[(4-oxo-1H-quinolin-3-yl)carbonylamino]phenyl]-propyl]aminoformic acid tetrahydrofuran-3-ylmethyl ester] was tested. Which Emax did it give?
**A.** The Emax was 25 to 100%.

**Q.** `CC(C)(C)c1cc(F)c(NC(=O)c2c[nH]c3ccc(Cl)cc3c2=O)cc1O` [Compound 561, 6-chloro-N-(2-fluoro-5-hydroxy-4-tert-butyl-phenyl)-4-oxo-1H-quinoline-3-carboxamide] was tested. Which Emax did it give?
**A.** Its Emax is 25 to 100%.

**Q.** For `O=C(Nc1ccc(Oc2cccnc2)cc1)c1c[nH]c2ccccc2c1=O` [Compound 614, 4-oxo-N-[4-(3-pyridyloxy)phenyl]-1H-quinoline-3-carboxamide], which Emax is on record?
**A.** Its Emax is 25 to 100%.

**Q.** For `CCCc1ccc(NC(=O)c2c[nH]c3ccccc3c2=O)cc1NC(=O)OCC` [Compound 382, [5-[(4-oxo-1H-quinolin-3-yl)carbonylamino]-2-propyl-phenyl]aminoformic acid ethyl ester], which Emax is on record?
**A.** The Emax was 25 to 100%.

**Q.** `COc1cccc(-c2ccccc2NC(=O)c2c[nH]c3ccccc3c2=O)c1F` [Compound 363, N-[2-(2-fluoro-3-methoxy-phenyl)phenyl]-4-oxo-1H-quinoline-3-carboxamide] was tested. Which Emax did it give?
**A.** The Emax was over 100%.

**Q.** Which Emax does the source give for `CC(C)(C)c1cc2cc[nH]c2cc1NC(=O)c1c[nH]c2ccc(F)cc2c1=O` [Compound 124, 6-fluoro-4-oxo-N-(5-tert-butyl-1H-indol-6-yl)-1H-quinoline-3-carboxamide] here?
**A.** Its Emax is over 100%.

**Q.** With `CC(C)(C)OC(=O)NCc1cc(NC(=O)c2c[nH]c3ccccc3c2=O)ccc1C(C)(C)C` [Compound 465, [5-[(4-oxo-1H-quinolin-3-yl)carbonylamino]-2-tert-butyl-phenyl]methylaminoformic acid tert-butyl ester] as the molecule, how does the Emax read?
**A.** Its Emax is 25 to 100%.

**Q.** How did the Emax turn out when `O=C(Nc1cccc2ncccc12)c1c[nH]c2ccccc2c1=O` [Compound 191, 4-oxo-N-(5-quinolyl)-1H-quinoline-3-carboxamide] was run?
**A.** Its Emax is under 25%.

**Q.** With `O=C(Nc1ccc2cn[nH]c2c1)c1c[nH]c2ccccc2c1=O` [Compound 284, N-(1H-indazol-6-yl)-4-oxo-1H-quinoline-3-carboxamide] as the molecule, how does the Emax read?
**A.** Its Emax is 25 to 100%.

**Q.** How did the Emax turn out when `O=C(Nc1ccc(OC(F)(F)F)c(N2CCCCC2)c1)c1c[nH]c2ccccc2c1=O` [Compound 696, 4-oxo-N-[3-(1-piperidyl)-4-(trifluoromethoxy)phenyl]-1H-quinoline-3-carboxamide] was run?
**A.** The Emax was 25 to 100%.

**Q.** Which Emax does the source give for `CC(C)(C)c1ccc(O)cc1NC(=O)c1c[nH]c2cccc(O)c2c1=O` [Compound 609, 5-hydroxy-N-(5-hydroxy-2-tert-butyl-phenyl)-4-oxo-1H-quinoline-3-carboxamide] here?
**A.** The Emax was 25 to 100%.

**Q.** How did the Emax turn out when `CCc1cc(C(C)(C)C)c(O)cc1NC(=O)c1c[nH]c2ccccc2c1=O` [Compound 659, N-(2-ethyl-5-hydroxy-4-tert-butyl-phenyl)-4-oxo-1H-quinoline-3-carboxamide] was run?
**A.** Its Emax is 25 to 100%.

Source: US8802700B2 (Vertex Pharmaceuticals Incorporated, priority 2010, dated 2014)
